Reference: US7348151B1, “Method for the cellular high-throughput-detection of nuclear receptor ligand interactions” (priority 1998, dated 2008)
Read-outs that look alike come from different tables or passages of the source.

Test system: ligand-binding domain of the human estrogen receptor (amino acids 282-595) fused to human Ha-Ras (L61) in cdc25-2 yeast cells
Type: cell-based
Settings: for growth of cdc25-2-yeast cells: Glu medium + E (10^−5M)
From the text: Expression of a functional, membrane-associated Ras protein fused to a nuclear receptor and/or parts of one such can be detected by the fact that the yeast cells are able to grow irrespective of the presence of a functional GEF protein at said restrictive temperatures if a suitable ligand of the expressed nuclear receptor is present.
The basic vector used is a vector with a marker gene (Ura) and a galactose-inducible promoter (GALI) for the fusion gene to be expressed. As shown diagrammatically in FIG. 2, the DNA sequence to be expressed encodes:
1. a myristylation signal,
3. the human Ha-Ras (L61) which is constitutively active and which lacks the so-called CAAX box, the farnesylation signal for membrane localization.
Conventional yeast transformation and manipulation protocols (see, for example, Hill et al. (1991), NAR 19, 5791) were used. The cells were plated out either on a glucose minimal medium which contains the necessary amino acids and nucleotides (20 mg/l histidine, 100 mg/l leucine, 20 mg/l tryptophan, 20 mg/l uracil, 10 mg/l adenine sulfate), 2% glucose, 0.5% NH4SC4, 0.17% yeast extract and 4% agar, or on galactose medium (1.7 g/l yeast nitrogen without amino acids, 5 g/l ammonium sulfate, 30 g/l galactose (>99%) 20 g/l D-raffinose, 20 g/l glycerol (100%), 30 g/l Bacto Agar).
Clones were plated out on YPD medium (1% yeast extract, 2% Bacto tryptone and 2% glucose) as control. YPD medium contains no galactose, so that there ought to be no expression of the fusion protein.
Replica platings were carried out with velvet replica plater. After transformation with the nucleic acid vector described above, the cells were plated out on glucose plates and incubated at a non-restrictive temperature of 25° C. for three to four days.

Substance: estrogen
- growth of cdc25-2-yeast cells (25° C. (non-restrictive)): +
- growth of cdc25-2-yeast cells (37° C. (restrictive), 12 to 36 h, OD 600): −
- cell reproduction of transformed clones (YPD medium (no galactose, no expression of the fusion protein) with addition of estrogen, control): no cell reproduction
